Data as given in the supplement of paper PMC11061612.

How the values were obtained:
[1] = compound: CCc1c2c(nc3ccc(O)cc13)-c1cc3c(c(=O)n1C2)COC(=O)[C@]3(O)CC [SN-38]; settings: max 0.3 µM
Outline: (§1)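 Plates with 1536 wells received cancer cell lines in 7.5 μl of DMEM/F12 or RPMI containing 10% FBS. After 24 hours at 37°C and 5% CO2, cells were dosed for 72 hours with final DMSO typically 0.2%, and viability was read by CellTiter-Glo 2.0 luminescence scaled between blank-well and DMSO-well means. The single-agent IC50 was taken from a logistic fit of the dose responses made with a non-linear mixed effects model, that logistic curve having two parameters.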

[2] = compound: CCN(CCO)CCCOc1ccc2c(Nc3cc(CC(=O)Nc4cccc(F)c4)[nH]n3)ncnc2c1 [AZD2811]; settings: max 1 µM
Outline: as §1

[3] = compound: CN(C)CCCOc1ccc(-c2ccc3ncc4c(c3c2)n(C2CCOCC2)c(=O)n4C)cn1 [AZD0156]; settings: max 3 µM
Outline: as §1

[4] = compound: Cc1cc2ncnn2cc1Nc1ncc2c(n1)n(C1CCOCC1)c(=O)n2C [AZD7648]; settings: max 10 µM
Outline: as §1

[5] = compound: COc1cc2ncnc(Nc3ccc(F)c(Cl)c3)c2cc1OCCCN1CCOCC1 [Gefitinib]; settings: max 10 µM
Outline: as §1

[6] = compound: C[C@@H](Nc1cc(F)cc(F)c1)c1cc(C(=O)N(C)C)cc2c(=O)cc(N3CCOCC3)oc12 [AZD8186]; settings: max 3 µM
Outline: as §1

[7] = compound: CC(=O)c1c(C)c2cnc(Nc3ccc(N4CCNCC4)cn3)nc2n(C2CCCC2)c1=O [Palbociclib]; settings: max 10 µM
Outline: as §1

[8] = compound: CC(=O)Nc1cccc(-n2c(=O)n(C3CC3)c(=O)c3c(Nc4ccc(I)cc4F)n(C)c(=O)c(C)c32)c1 [Trametinib]; settings: max 1 µM
Outline: as §1

[9] = compound: C[C@@H](Oc1cc(-c2cnn(C3CCNCC3)c2)cnc1N)c1c(Cl)ccc(F)c1Cl [Crizotinib]; settings: max 10 µM
Outline: as §1

[10] = compound: Cc1c2c(nn1C)CSCc1cc(n(C)n1)CSc1cc(c3ccccc3c1)OCCCc1c(C(=O)O)n(C)c3c-2c(Cl)ccc13 [AZD5991]; settings: max 1 µM
Outline: as §1

[11] = compound: C[C@@H](c1ccc2nccn2c1)n1nnc2ncc(-c3cnn(C)c3)nc21 [Savolitinib]; settings: max 1 µM
Outline: as §1

[12] = compound: O=C(c1cc(Cc2n[nH]c(=O)c3ccccc23)ccc1F)N1CCN(C(=O)C2CC2)CC1 [Olaparib]; settings: max 10 µM
Outline: as §1

[13] = compound: C=CCn1c(=O)c2cnc(Nc3ccc(N4CCN(C)CC4)cc3)nc2n1-c1cccc(C(C)(C)O)n1 [AZD1775]; settings: max 3 µM
Outline: as §1

[14] = compound: COc1nnc2ccc(N3CCC(c4ccc(OCCN5CCN(C)C(=O)[C@H]5C)cc4)CC3)nn12 [AZD5153]; settings: max 1 µM
Outline: as §1

[15] = compound: CN(CC[C@H](CSC1=CC=CC=C1)NC2=C(C=C(C=C2)S(=O)(=O)NC(=O)C3=CC=C(C=C3)N4CCC(CC4)[C@H](C5=CC=CC=C5C6=CC=C(C=C6)Cl)O)S(=O)(=O)C(F)(F)F)CCO [AZD4320]; settings: max 1 µM
Outline: as §1

[16] = compound: CC1(C)CCC(CN2CCN(c3ccc(C(=O)NS(=O)(=O)c4ccc(NCC5CCOCC5)c([N+](=O)[O-])c4)c(Oc4cnc5[nH]ccc5c4)c3)CC2)=C(c2ccc(Cl)cc2)C1 [Venetoclax]; settings: max 1 µM
Outline: as §1

[17] = compound: CS(=O)(=O)CCNCc1ccc(-c2ccc3ncnc(Nc4ccc(OCc5cccc(F)c5)c(Cl)c4)c3c2)o1 [Lapatinib]; settings: max 10 µM
Outline: as §1

[18] = compound: C[C@@H]1COCCN1C2=NC(=NC(=C2)C3(CC3)[S@](=N)(=O)C)C4=C5C=CNC5=NC=C4 [AZD6738]; settings: max 10 µM
Outline: as §1

[19] = compound: COc1cccc2c1C(=O)c1c(O)c3c(c(O)c1C2=O)C[C@@](O)(C(=O)CO)C[C@@H]3O[C@H]1C[C@H](N)[C@H](O)[C@H](C)O1 [Doxorubicin]; settings: max 1 µM
Outline: as §1

[20] = compound: CC(C)n1c(=O)n(C)c2cnc3cc(F)c(-c4ccc(OCCCN5CCCCC5)nc4)cc3c21 [AZD1390]; settings: max 0.3 µM
Outline: as §1

[21] = compound: CC1=CN2[C@@H](C1)C=NC3=CC(=C(C=C3C2=O)OC)OCCCCCOC4=C(C=C5C(=C4)N=C[C@@H]6CC(=CN6C5=O)C)OC [SG3199]; settings: max 0.001 µM
Outline: as §1

[22] = compound: CC1=C(C(=CC=C1)Cl)NC(=O)C2=CN=C(S2)NC3=CC(=NC(=N3)C)N4CCN(CC4)CCO [Dasatinib]; settings: max 2 µM
Outline: as §1

[23] = compound: Cc1nc(-c2cn3c(n2)-c2ccc(-c4cnn(C(C)(C)C(N)=O)c4)cc2OCC3)n(C(C)C)n1 [Taselisib]; settings: max 10 µM
Outline: as §1

[24] = compound: C1CN(CCC1(C(=O)N[C@@H](CCO)C2=CC=C(C=C2)Cl)N)C3=NC=NC4=C3C=CN4 [Capivasertib]; settings: max 10 µM
Outline: as §1

[25] = compound: COc1cc(Nc2ncc3c(n2)-c2ccc(Cl)cc2C(c2c(F)cccc2OC)=NC3)ccc1C(=O)O [Alisertib]; settings: max 10 µM
Outline: as §1

[26] = compound: COc1cccc(OCCCN)c1-c1cc(Nc2cnc(C#N)cn2)n[nH]1 [Prexasertib]; settings: max 1 µM
Outline: as §1

[27] = compound: Cn1cnc2c(F)c(Nc3ccc(Br)cc3Cl)c(C(=O)NOCCO)cc21 [Selumetinib]; settings: max 10 µM
Outline: as §1

| Cell Line | IC50, cell viability 72 h [1] [nM] | IC50, cell viability 72 h [2] [nM] | IC50, cell viability 72 h [3] [nM] | IC50, cell viability 72 h [4] [nM] | IC50, cell viability 72 h [5] [nM] | IC50, cell viability 72 h [6] [nM] | IC50, cell viability 72 h [7] [nM] | IC50, cell viability 72 h [8] [nM] | IC50, cell viability 72 h [9] [nM] | IC50, cell viability 72 h [10] [nM] | IC50, cell viability 72 h [11] [nM] | IC50, cell viability 72 h [12] [nM] | IC50, cell viability 72 h [13] [nM] | IC50, cell viability 72 h [14] [nM] | IC50, cell viability 72 h [15] [nM] | IC50, cell viability 72 h [16] [nM] | IC50, cell viability 72 h [17] [nM] | IC50, cell viability 72 h [18] [nM] | IC50, cell viability 72 h [19] [nM] | IC50, cell viability 72 h [20] [nM] | IC50, cell viability 72 h [21] [nM] | IC50, cell viability 72 h [22] [nM] | IC50, cell viability 72 h [23] [nM] | IC50, cell viability 72 h [24] [nM] | IC50, cell viability 72 h [25] [nM] | IC50, cell viability 72 h [26] [nM] | IC50, cell viability 72 h [27] [nM] |
| --- | --- | --- | --- | --- | --- | --- | --- | --- | --- | --- | --- | --- | --- | --- | --- | --- | --- | --- | --- | --- | --- | --- | --- | --- | --- | --- | --- |
| 5637 (Bladder Carcinoma) | 37.9 | 251 | > 3000 | > 10000 | > 10000 | > 3000 | > 10000 | > 1000 | > 10000 | > 1000 | > 1000 | > 10000 | 385 | 900 | > 1000 | > 1000 | 7560 | 6460 | > 1000 | > 300 | > 1 | 260 | 8900 | > 10000 | 1010 | 53.2 | > 10000 |
| A204 (Rhabdomyosarcoma) | 132 | > 1000 | > 3000 | > 10000 | > 10000 | > 3000 | > 10000 | > 1000 | > 10000 | > 1000 | > 1000 | > 10000 | > 3000 | > 1000 | > 1000 | > 1000 | > 10000 | > 10000 | 528 | > 300 | > 1 | 1390 | 4320 | > 10000 | > 10000 | 362 | > 10000 |
| A253 (Head and Neck Carcinoma) | 18.7 | > 1000 | > 3000 | > 10000 | > 10000 | > 3000 | > 10000 | 746 | > 10000 | 447 | > 1000 | > 10000 | 1130 | > 1000 | > 1000 | > 1000 | > 10000 | 4570 | 177 | > 300 | > 1 | > 2000 | 6730 | 4080 | > 10000 | 110 | > 10000 |
| AU565 (Breast Carcinoma) | 14.5 | > 1000 | > 3000 | > 10000 | 2740 | > 3000 | > 10000 | > 1000 | > 10000 | 68.3 | > 1000 | > 10000 | 435 | > 1000 | > 1000 | > 1000 | 358 | > 10000 | 634 | > 300 | > 1 | > 2000 | 3150 | 7950 | 9280 | 133 | > 10000 |
| CA46 (Burkitt's Lymphoma) | 135 | > 1000 | > 3000 | > 10000 | > 10000 | > 3000 | > 10000 | > 1000 | > 10000 | > 1000 | > 1000 | > 10000 | 579 | 232 | > 1000 | > 1000 | > 10000 | > 10000 | > 1000 | > 300 | > 1 | > 2000 | > 10000 | > 10000 | > 10000 | 142 | > 10000 |
| CAL-27 (Oral Cavity Carcinoma) | 13.6 | 608 | > 3000 | > 10000 | 839 | > 3000 | > 10000 | 129 | > 10000 | 413 | > 1000 | > 10000 | 1850 | 426 | > 1000 | > 1000 | 933 | > 10000 | 927 | > 300 | > 1 | 431 | 854 | > 10000 | 443 | 894 | 1890 |
| CESS (Acute Myeloid Leukemia) | 6.15 | > 1000 | > 3000 | > 10000 | > 10000 | 2140 | 8030 | > 1000 | 4010 | > 1000 | > 1000 | > 10000 | 353 | 297 | > 1000 | > 1000 | > 10000 | 2080 | 237 | > 300 | > 1 | 1400 | 7400 | 4120 | 107 | 12.2 | > 10000 |
| COLO-792 (Melanoma) | > 300 | > 1000 | > 3000 | > 10000 | > 10000 | > 3000 | > 10000 | 110 | 5380 | 238 | > 1000 | > 10000 | 2290 | 512 | 788 | > 1000 | > 10000 | > 10000 | > 1000 | > 300 | > 1 | > 2000 | 1690 | > 10000 | > 10000 | > 1000 | 5940 |
